The test system of series [1] is human Hep G2 cells (ATCC HB-8065). The series can be described thus: Cytotoxicity in Hep G2 cells (CellTiter-Glo). In kind it is cell-based. The note with it: Hep G2 cells, 100 μM test article, 24-hour exposure. On the technique in general: ATP-based viability assays read luminescence as a measure of living cells.
For a further series, the target named is T1, SARS-CoV-2 PLpro (Severe acute respiratory syndrome coronavirus 2, UniProt P0DTD1).
T1 construct: containing 60 nM papain-like protease
The series can be described thus: biochemical. The note with it: 60 nM papain-like protease, 50 μM Z-RLRGG-AMC, pH 7.5, 37° C.; read-out: SARS-CoV-2 PLpro IC50.

Where a name gives a salt, the structure may show the parent alone.

As to `Cc1ccc(N2CCN(C)CC2)cc1C(=O)N[C@H](C)c1ccc(O)c(-c2cnn(C)c2)c1` [Example 276, N-[(1R)-1-[4-Hydroxy-3-(1-methylpyrazol-4-yl)phenyl]ethyl]-2-methyl-5-(4-methylpiperazin-1-yl)benzamide], in series [1], the “% Cell Viability” value came to 81.6%. For the same compound, the IC50 (in general, the point on the concentration scale where inhibition reaches its midpoint) at SARS-CoV-2 PLpro is less than 2000 nM.

Take `COc1ccc([C@@H](C)NC(=O)c2cc(N3CCN(C)CC3)ccc2C)cc1-c1ccsc1` [Example 206, N-[(1R)-1-[4-Methoxy-3-(3-thienyl)phenyl]ethyl]-2-methyl-5-(4-methylpiperazin-1-yl)benzamide]: the “% Cell Viability” value in series [1] was 0.8%. Besides, the IC50 at SARS-CoV-2 PLpro is less than 2000 nM.

Consider `Cc1ccc(N2CCN(C)CC2)cc1C(=O)N[C@H](C)c1cccc(-c2csc(C(=O)N(C)C)c2)c1` [Example 101, N,N-Dimethyl-4-[3-[(1R)-1-[[2-methyl-5-(4-methylpiperazin-1-yl)benzoyl]amino]ethyl]phenyl]thiophene-2-carboxamide], for which the “% Cell Viability” value in series [1] was determined as 88.1%. On SARS-CoV-2 PLpro, the half-inhibitory concentration (IC50) is less than 2000 nM.

Consider `Cc1ccc(N2CCN(C)CC2)cc1C(=O)N[C@H](C)c1ccc(OC(C)C)c(-c2cnn(C)c2)c1` [Example 250, N-[(1R)-1-[4-isopropoxy-3-(1-methylpyrazol-4-yl)phenyl]ethyl]-2-methyl-5-(4-methylpiperazin-1-yl)benzamide], for which, in series [1], the “% Cell Viability” value worked out at 93.0%. Moreover, the IC50 on SARS-CoV-2 PLpro was less than 2000 nM.

On to `Cc1ccc(N2CCN(C)CC2)cc1C(=O)N[C@H](C)c1ccc(OC(F)(F)F)c(-c2cnn(C)c2)c1` [Example 222, 2-Methyl-5-(4-methylpiperazin-1-yl)-N-[(1R)-1-[3-(1-methylpyrazol-4-yl)-4-(trifluoromethoxy)phenyl]ethyl]benzamide], for which the “% Cell Viability” value in series [1] was found to be 7.4%. Besides, the IC50 at SARS-CoV-2 PLpro was less than 2000 nM.

For `Cc1ccc(N2CCN(C)CC2)cc1C(=O)N[C@H](C)c1cccc(-c2cccc(C(=O)N3CC[C@H](O)C3)c2)c1` [Example 95, N-[(1R)-1-[3-[3-[(3S)-3-Hydroxypyrrolidine-1-carbonyl]phenyl]phenyl]ethyl]-2-methyl-5-(4-methylpiperazin-1-yl)benzamide], in series [1], the “% Cell Viability” value turned out to be 88.5%. Moreover, at SARS-CoV-2 PLpro, the IC50 was less than 2000 nM.

`COc1ccc([C@@H](C)NC(=O)c2cc(N3CC4CNCC4C3)ccc2C)cc1OC` (stereo partly drawn) [Example 36, 5-(2,3,3a,4,6,6a-Hexahydro-1H-pyrrolo[3,4-c]pyrrol-5-yl)-N-[(1R)-1-(3,4-dimethoxyphenyl)ethyl]-2-methyl-benzamide]: the “% Cell Viability” value in series [1] is on record as 98.0%. In addition, at SARS-CoV-2 PLpro, the IC50 was less than 2000 nM.

Turning to `C[C@@H](NC(=O)c1cccc(C2CCNCC2)c1)c1cccc2ccccc12` [Example 6, N-[(1R)-1-(1-Naphthyl)ethyl]-3-(4-piperidyl)benzamide Hydrochloride Salt], the “% Cell Viability” value in series [1] came out at 0.6%. For the same compound, the IC50 at SARS-CoV-2 PLpro is less than 20000 nM.

Take `Cc1ccc(N2CCN(C)CC2)c(C)c1C(=O)N[C@H](C)c1cccc2ccccc12` [Example 124, 2,6-Dimethyl-3-(4-methylpiperazin-1-yl)-N-[(1R)-1-(1-naphthyl)ethyl]benzamide]: the “% Cell Viability” value in series [1] worked out at 37.4%. On SARS-CoV-2 PLpro, the half-maximal inhibitory concentration (IC50) is less than 2000 nM.

Regarding `Cc1ccc(N2CCN(C)CC2)cc1C(=O)N[C@H](C)c1cccc(C#CCO)c1` [Example 315, N-[(1R)-1-[3-(3-Hydroxyprop-1-ynyl)phenyl]ethyl]-2-methyl-5-(4-methylpiperazin-1-yl)benzamide], the “% Cell Viability” value in series [1] was determined as 122.7%. For the same compound, the IC50 on SARS-CoV-2 PLpro is less than 5000 nM.

For the compound `COc1ccc([C@@H](C)NC(=O)c2cc(C3CCN(C)CC3)ccc2C)cc1Br` [Example 299, N-[(1R)-1-(3-Bromo-4-methoxy-phenyl)ethyl]-2-methyl-5-(1-methyl-4-piperidyl)benzamide], the “% Cell Viability” value in series [1] came to 76.2%. The IC50 on SARS-CoV-2 PLpro was less than 2000 nM.

In the case of `Cc1ccc(N2C[C@H]3C[C@@H]2CN3C)cc1C(=O)N[C@H](C)c1cccc(Br)c1` [Example 123, N-[(1R)-1-(3-bromophenyl)ethyl]-2-methyl-5-[(1R,4R)-5-methyl-2,5-diazabicyclo[2.2.1]heptan-2-yl]benzamide], in series [1], the “% Cell Viability” value is given as 32.9%. Besides, the half-maximal inhibitory concentration (IC50) on SARS-CoV-2 PLpro is less than 2000 nM.

Consider `Cc1ccc(N2CCN(C)CC2)cc1C(=O)N[C@H](C)c1cccc(CCC(=O)NCCO)c1` [Example 96, N-[(1R)-1-[3-[3-(2-Hydroxyethylamino)-3-oxo-propyl]phenyl]ethyl]-2-methyl-5-(4-methylpiperazin-1-yl)benzamide], for which the “% Cell Viability” value in series [1] is 97.3%. In addition, on SARS-CoV-2 PLpro, the 50% inhibitory concentration (IC50) is less than 10000 nM.

For `Cc1ccc(N2CCNCC2)cc1C(=O)N[C@H](C)c1cccc2ccccc12` [Example 108, 2-Methyl-N-[(1R)-1-(1-naphthyl)ethyl]-5-piperazin-1-yl-benzamide], in series [1], the “% Cell Viability” value was determined as 2.1%. Besides, on SARS-CoV-2 PLpro, the IC50 was less than 2000 nM.

`Cc1ccc(N2CCCNCC2)cc1C(=O)N[C@H](C)c1cccc2ccccc12` [Example 128, 5-(1,4-Diazepan-1-yl)-2-methyl-N-[(1R)-1-(1-naphthyl)ethyl]benzamide]: the “% Cell Viability” value in series [1] turned out to be 1.1%. Also, the IC50 on SARS-CoV-2 PLpro is less than 2000 nM.

As to `COc1ccc([C@@H](C)NC(=O)c2cc(N3CCC4(CC3)CNC4)ccc2C)cc1-c1cnn(C)c1` [Example 259, 5-(2,7-Diazaspiro[3.5]nonan-7-yl)-N-[(1R)-1-[4-methoxy-3-(1-methylpyrazol-4-yl)phenyl]ethyl]-2-methyl-benzamide], the “% Cell Viability” value in series [1] came to 111.1%. Besides, the concentration for half-maximal inhibition (IC50) at SARS-CoV-2 PLpro is less than 2000 nM.

With `COc1ccc([C@@H](C)NC(=O)c2cc(N3CCN(C)CC3)ccc2C)cc1-c1csc(C(=O)N(C)C)c1` [Example 285, 4-[2-Methoxy-5-[(1R)-1-[[2-methyl-5-(4-methylpiperazin-1-yl)benzoyl]amino]ethyl]phenyl]-N,N-dimethyl-thiophene-2-carboxamide], in series [1], the “% Cell Viability” value was 72.2%. The IC50 on SARS-CoV-2 PLpro was less than 2000 nM.

Regarding `Cc1ccc(N2CCCN(CCC(=O)O)CC2)cc1C(=O)N[C@H](C)c1cccc2ccccc12` [Example 163, 3-[4-[4-Methyl-3-[[(1R)-1-(1-naphthyl)ethyl]carbamoyl]phenyl]-1,4-diazepan-1-yl]propanoic acid], the “% Cell Viability” value in series [1] worked out at 122.4%. In addition, the IC50 at SARS-CoV-2 PLpro was less than 5000 nM.

In the case of `Cc1ccc(N2CCN(C)CC2)cc1C(=O)N[C@H](C)c1cccc(-c2cccc(C(=O)N(C)CCN(C)C)c2)c1` [Example 86, N-[(1R)-1-[3-[3-[2-(Dimethylamino)ethyl-methyl-carbamoyl]phenyl]phenyl]ethyl]-2-methyl-5-(4-methylpiperazin-1-yl)benzamide], the “% Cell Viability” value in series [1] worked out at 72.1%. Besides, the IC50 at SARS-CoV-2 PLpro was less than 2000 nM.

For the compound `Cc1ccc(N2CCN(C)CC2)cc1C(=O)N[C@H](C)c1ccc(OCCO)c(-c2cnn(C)c2)c1` [Example 282, N-[(1R)-1-[4-(2-Hydroxyethoxy)-3-(1-methylpyrazol-4-yl)phenyl]ethyl]-2-methyl-5-(4-methylpiperazin-1-yl)benzamide], the “% Cell Viability” value in series [1] came out at 100.0%. The IC50 on SARS-CoV-2 PLpro is less than 2000 nM.

As for `COc1cc([C@@H](C)NC(=O)c2cc(N3CCN(C)CC3)ccc2C)ccc1OCc1ccccc1` [Example 184, N-[(1R)-1-(4-benzyloxy-3-methoxy-phenyl)ethyl]-2-methyl-5-(4-methylpiperazin-1-yl)benzamide], the “% Cell Viability” value in series [1] is on record as 51.3%. At SARS-CoV-2 PLpro, the IC50 is less than 2000 nM.

As for `COc1ccc([C@@H](C)NC(=O)c2cc(N3CCN(C)CC3)ccc2C)cc1Cl` [Example 188, N-[(1R)-1-(3-Chloro-4-methoxy-phenyl)ethyl]-2-methyl-5-(4-methylpiperazin-1-yl)benzamide], in series [1], the “% Cell Viability” value was 84.9%. On SARS-CoV-2 PLpro, the IC50 is less than 2000 nM.

On to `COc1ccc([C@@H](C)NC(=O)c2cc(N3CCN(C)CC3)ccc2C)cc1-c1ccc(=O)n(C)c1` [Example 210, N-[(1R)-1-[4-Methoxy-3-(1-methyl-6-oxo-3-pyridyl)phenyl]ethyl]-2-methyl-5-(4-methylpiperazin-1-yl)benzamide], for which, in series [1], the “% Cell Viability” value is on record as 64.0%. Moreover, the IC50 on SARS-CoV-2 PLpro was less than 5000 nM.

For the compound `COc1cc(-c2cnn(C)c2)cc([C@@H](C)NC(=O)c2cc(N3CCCNCC3)ccc2C)c1` [Example 263, 5-(1,4-Diazepan-1-yl)-N-[(1R)-1-[3-methoxy-5-(1-methylpyrazol-4-yl)phenyl]ethyl]-2-methyl-benzamide], the “% Cell Viability” value in series [1] is listed as 56.4%. The IC50 at SARS-CoV-2 PLpro is less than 2000 nM.

Regarding `C[C@@H](NC(=O)c1cccc(N2CCN(C)CC2)c1)c1cccc2ccccc12` [Example 2, 3-(4-Methylpiperazin-1-yl)-N-[(1R)-1-(1-naphthyl)ethyl]benzamide], in series [1], the “% Cell Viability” value stood at 20.3%. The concentration for half-maximal inhibition (IC50) on SARS-CoV-2 PLpro was less than 2000 nM.

`COc1ccc([C@@H](C)NC(=O)c2cc(N3CCN(C)CC3)ccc2C)cc1` [Example 30, N-[(1R)-1-(4-Methoxyphenyl)ethyl]-2-methyl-5-(4-methylpiperazin-1-yl)benzamide]: the “% Cell Viability” value in series [1] is given as 102.3%. At SARS-CoV-2 PLpro, the IC50 is less than 10000 nM.

With `COCCNC(=O)c1cc(-c2cccc([C@@H](C)NC(=O)c3cc(N4CCN(C)CC4)ccc3C)c2)cs1` [Example 100, N-(2-Methoxyethyl)-4-[3-[(1R)-1-[[2-methyl-5-(4-methylpiperazin-1-yl)benzoyl]amino]ethyl]phenyl]thiophene-2-carboxamide], in series [1], the “% Cell Viability” value was determined as 65.9%. Besides, the IC50 on SARS-CoV-2 PLpro is less than 2000 nM.

As to `Cc1ccc(N2CCN(C)CC2)cc1C(=O)N[C@H](C)c1cccc(-c2cccc(C(=O)NC[C@H](O)CO)c2)c1` [Example 89], the “% Cell Viability” value in series [1] was determined as 96.2%. Further, on SARS-CoV-2 PLpro, the IC50 was less than 5000 nM.

Turning to `Cc1ccc(N2CCN(C)CC2)cc1C(=O)N[C@H](C)c1cncc(-c2ccccc2)c1` [Example 223, 2-Methyl-5-(4-methylpiperazin-1-yl)-N-[(1R)-1-(5-phenyl-3-pyridyl)ethyl]benzamide], the “% Cell Viability” value in series [1] is on record as 59.8%. In addition, on SARS-CoV-2 PLpro, the IC50 is less than 2000 nM.

The values above are taken from US20240383852A1, “ANTI-VIRAL COMPOUNDS” (INFEX Therapeutics Limited, priority 2021, published 2024).
